Source: patent US20230331691A1, “TREPROSTINIL DERIVATIVE COMPOUNDS AND METHODS OF USING SAME” (CORSAIR PHARMA, INC., priority 2013, published 2023)
One block for each compound: values may come before it.

Legend:
Assay type in all cases: in vitro ADME
[1] = Human liver microsomal stability assay (Test 1); settings: human liver microsomes, 0.5 uM test compound, 37° C., up to 45 minutes, pH 7.4, NADPH generating system; read-out: Test 1 T½
Procedure: (§1) (Test 1) Human liver microsomal stability assay was conducted by incubating 0.5 uM test compounds at 37° C. for up to 45 minutes in 50 mM of potassium phosphate buffer (pH 7.4) containing 0.5 mg of microsomal protein and 50 µL of NADPH generating system (7.8 mg of glucose 6-phosphate, 1.7 mg of NADPH and 6 U of glucose 6-phosphate dehydrogenase per mL in 2% w/v of sodium bicarbonate). At 0, 5, 15, 30 and 45 min., an aliquot was taken, quenched with internal standard containing stop solution. No co-factor controls at 45 minutes were also prepared. After incubation, the samples were analyzed by LC-MS/MS. Peak area ratios of analyte to internal standard were used to calculate the intrinsic clearance. The intrinsic clearance (CLint) was determined from the first order elimination constant by non-linear regression. Formation of the active drug Compound A over the time course was also monitored by LC-MS/MS analysis.

[2] = Human skin homogenate stability assay (Test 3); settings: 0.5 uM test compound, 37° C., up to 45 minutes, pH 7.4, NADPH generating system, read-out: Test 3 T½
Procedure: as §1, with “3)” for “1)”, “skin homogenate” for “liver microsomal”, “conducted in a similar way as the human liver microsomal stability assay,” for “conducted”, “human skin homogenate” for “microsomal”

[3] = Human plasma stability assay (Test 2); settings: heparinated human plasma, 0.5 uM test compound, 37° C., up to 120 minutes; read-out: Test 2 T½
Procedure: (Test 2) Human plasma stability assay was conducted by incubating 0.5 uM test compounds at 37° C. for up to 120 minutes in heparinated human plasma. At 0, 5, 15, 30, 60 and 120 […] min., an aliquot was taken, quenched with internal standard containing stop solution. After incubation, the samples were analyzed by LC-MS/MS. Peak area ratios of analyte to internal standard were used to calculate the half-life. Formation of the active drug Compound A over the time course was also monitored by LC-MS/MS analysis.

Structure (SMILES): CCCCC[C@H](O)CC[C@@H]1[C@H]2Cc3cccc(OCC(=O)OC)c3C[C@H]2C[C@H]1OC(=O)CCCC [Compound 22, Pentanoic acid 1-(3-hydroxy-octyl)-5-methoxycarbonylmethoxy-2,3,3a,4,9,9a-hexahydro-1H-cyclopenta[b]naphthalen-2-yl ester]
half-life at 0.5 uM [1]: < 15 min
half-life at 0.5 uM [2]: > 60 min
half-life at 0.5 uM [3]: > 60 min

Structure (SMILES): CCCCC[C@H](O)CC[C@@H]1[C@H]2Cc3cccc(OCC(=O)OC(C)C(C)(C)C)c3C[C@H]2C[C@H]1O (stereo partly shown) [Compound 18, [2-Hydroxy-1-(3-hydroxy-octyl)-2,3,3a,4,9,9a-hexahydro-1H-cyclopenta[b]naphthalen-5-yloxy]-acetic acid 1,2,2-trimethyl-propyl ester]
half-life at 0.5 uM [1]: < 15 min
half-life at 0.5 uM [2]: > 60 min
half-life at 0.5 uM [3]: > 60 min

Structure (SMILES): CCCCC[C@H](O)CC[C@@H]1[C@H]2Cc3cccc(OCC(=O)OC4CCOC4)c3C[C@H]2C[C@H]1O (stereo partly shown) [Compound 5, [2-Hydroxy-1-(3-hydroxy-octyl)-2,3,3a,4,9,9a-hexahydro-1H-cyclopenta[b]naphthalen-5-yloxy]-acetic acid tetrahydro-furan-3-yl ester]
half-life at 0.5 uM [1]: < 15 min
half-life at 0.5 uM [3]: < 15 min

Structure (SMILES): CCCCC[C@H](O)CC[C@@H]1[C@H]2Cc3cccc(OCC(=O)OC(C)C(C)C)c3C[C@H]2C[C@H]1O (stereo partly shown) [Compound 17, [2-Hydroxy-1-(3-hydroxy-octyl)-2,3,3a,4,9,9a-hexahydro-1H-cyclopenta[b]naphthalen-5-yloxy]-acetic acid 1,2-dimethyl-propyl ester]
half-life at 0.5 uM [1]: < 15 min
half-life at 0.5 uM [2]: 15 to 30 min
half-life at 0.5 uM [3]: 31 to 60 min

Structure (SMILES): CCCCC[C@H](O)CC[C@@H]1[C@H]2Cc3cccc(OCC(=O)OC)c3C[C@H]2C[C@H]1OC(=O)CCC(=O)OCC [Compound 27, Succinic acid ethyl ester 1-(3-hydroxy-octyl)-5-methoxycarbonylmethoxy-2,3,3a,4,9,9a-hexahydro-1H-cyclopenta[b]naphthalen-2-yl ester]
half-life at 0.5 uM [1]: < 15 min
half-life at 0.5 uM [3]: > 60 min

Structure (SMILES): CCCCC[C@H](O)CC[C@@H]1[C@H]2Cc3cccc(OCC(=O)O[C@@H](C)C(C)C)c3C[C@H]2C[C@H]1O [Compound 63]
half-life at 0.5 uM [1]: < 15 min
half-life at 0.5 uM [2]: 31 to 60 min
half-life at 0.5 uM [3]: 31 to 60 min

Structure (SMILES): CCCCC[C@H](O)CC[C@@H]1[C@H]2Cc3cccc(OCC(=O)OC)c3C[C@H]2C[C@H]1OC(=O)C1CC1 [Compound 24, Cyclopropanecarboxylic acid 1-(3-hydroxy-octyl)-5-methoxycarbonylmethoxy-2,3,3a,4,9,9a-hexahydro-1H-cyclopenta[b]naphthalen-2-yl ester]
half-life at 0.5 uM [1]: < 15 min
half-life at 0.5 uM [3]: > 60 min

Structure (SMILES): CCCCC[C@H](O)CC[C@@H]1[C@H]2Cc3cccc(OCC(=O)O[C@H](C)C(=O)OC)c3C[C@H]2C[C@H]1O [Compound 6, 2-{2-[2-Hydroxy-1-(3-hydroxy-octyl)-2,3,3a,4,9,9a-hexahydro-1H-cyclopenta[b]naphthalen-5-yloxy]-acetoxy}-propionic acid methyl ester]
half-life at 0.5 uM [1]: < 15 min
half-life at 0.5 uM [3]: < 15 min

Structure (SMILES): CCCCC[C@H](O)CC[C@@H]1[C@H]2Cc3cccc(OCC(=O)NCC(F)(F)C(F)(F)F)c3C[C@H]2C[C@H]1O [Compound 21, 2-[2-Hydroxy-1-(3-hydroxy-octyl)-2,3,3a,4,9,9a-hexahydro-1 H-cyclopenta[b]naphthalen-5-yloxy]-N-(2,2,3,3,3-pentafluoro-propyl)-acetamide]
half-life at 0.5 uM [1]: < 15 min
half-life at 0.5 uM [3]: > 60 min

Structure (SMILES): CCCCC[C@H](O)CC[C@@H]1[C@H]2Cc3cccc(OCC(=O)NCCCO)c3C[C@H]2C[C@H]1O [Compound 11, 2-[2-Hydroxy-1-(3-hydroxy-octyl)-2,3,3a,4,9,9a-hexahydro-1H-cyclopenta[b]naphthalen-5-yloxy]-N-(3-hydroxy-propyl)-acetamide]
half-life at 0.5 uM [1]: < 15 min
half-life at 0.5 uM [3]: > 60 min

Structure (SMILES): CCCCC[C@H](O)CC[C@@H]1[C@H]2Cc3cccc(OCC(=O)OC)c3C[C@H]2C[C@H]1OC(=O)CC(C)C [Compound 23, 3-Methyl-butyric acid 1-(3-hydroxy-octyl)-5-methoxycarbonylmethoxy-2,3,3a,4,9,9a-hexahydro-1H-cyclopenta[b]naphthalen-2-yl ester]
half-life at 0.5 uM [1]: < 15 min
half-life at 0.5 uM [3]: > 60 min

Second part, the compound after the results:

half-life at 0.5 uM [1]: < 15 min
half-life at 0.5 uM [2]: < 15 min
half-life at 0.5 uM [3]: 31 to 60 min
Structure (SMILES): CCCCC[C@H](O)CC[C@@H]1[C@H]2Cc3cccc(OCC(=O)OC(C)C)c3C[C@H]2C[C@H]1O [Compound 20, [2-Hydroxy-1-(3-hydroxy-octyl)-2,3,3a,4,9,9a-hexahydro-1H-cyclopenta[b]naphthalen-5-yloxy]-acetic acid isopropyl ester]

half-life at 0.5 uM [1]: < 15 min
Structure (SMILES): CCCCC[C@H](O)CC[C@@H]1[C@H]2Cc3cccc(OCC(=O)OCCOC)c3C[C@H]2C[C@H]1O [Compound 10, [2-Hydroxy-1-(3-hydroxy-octyl)-2,3,3a,4,9,9a-hexahydro-1H-cyclopenta[b]naphthalen-5-yloxy]-acetic acid 2-methoxy-ethyl ester]

half-life at 0.5 uM [1]: < 15 min
half-life at 0.5 uM [3]: < 15 min
Structure (SMILES): CCCCC[C@H](O)CC[C@@H]1[C@H]2Cc3cccc(OCC(=O)OCCCF)c3C[C@H]2C[C@H]1O [Compound 4, [2-Hydroxy-1-(3-hydroxy-octyl)-2,3,3a,4,9,9a-hexahydro-1H-cyclopenta[b]naphthalen-5-yloxy]-acetic acid 3-fluoro-propyl ester]

half-life at 0.5 uM [1]: < 15 min
half-life at 0.5 uM [2]: > 60 min
half-life at 0.5 uM [3]: 31 to 60 min
Structure (SMILES): CCCCC[C@H](O)CC[C@@H]1[C@H]2Cc3cccc(OCC(=O)O[C@H](C)C(C)C)c3C[C@H]2C[C@H]1O [Compound 62]

half-life at 0.5 uM [1]: < 15 min
half-life at 0.5 uM [2]: 31 to 60 min
half-life at 0.5 uM [3]: 31 to 60 min
Structure (SMILES): CCCCC[C@H](O)CC[C@@H]1[C@H]2Cc3cccc(OCC(=O)O[C@H](C)CC)c3C[C@H]2C[C@H]1O [Compound 60]

half-life at 0.5 uM [1]: < 15 min
half-life at 0.5 uM [3]: < 15 min
Structure (SMILES): CCCCC[C@H](O)CC[C@@H]1[C@H]2Cc3cccc(OCC(=O)OCC4CC4)c3C[C@H]2C[C@H]1O [Compound 1, [2-Hydroxy-1-(3-hydroxy-octyl)-2,3,3a,4,9,9a-hexahydro-1H-cyclopenta[b]naphthalen-5-yloxy]-acetic acid cyclopropylmethyl ester]

half-life at 0.5 uM [1]: < 15 min
Structure (SMILES): CCCCC[C@H](O)CC[C@@H]1[C@H]2Cc3cccc(OCC(=O)OCCO)c3C[C@H]2C[C@H]1O [Compound 9, [2-Hydroxy-1-(3-hydroxy-octyl)-2,3,3a,4,9,9a-hexahydro-1H-cyclopenta[b]naphthalen-5-yloxy]-acetic acid 2-hydroxy-ethyl ester]

half-life at 0.5 uM [1]: < 15 min
half-life at 0.5 uM [3]: > 60 min
Structure (SMILES): CCCCC[C@H](O)CC[C@@H]1[C@H]2Cc3cccc(OCC(=O)NCC(=O)OC)c3C[C@H]2C[C@H]1O [Compound 12, {2-[2-Hydroxy-1-(3-hydroxy-octyl)-2,3,3a,4,9,9a-hexahydro-1H-cyclopenta[b]naphthalen-5-yloxy]-acetylamino}-acetic acid methyl ester]

half-life at 0.5 uM [1]: 31 to 60 min
Structure (SMILES): CCCCC[C@H](O)CC[C@@H]1[C@H]2Cc3cccc(OCC(=O)NCCN)c3C[C@H]2C[C@H]1O [Compound 8, N-(2-Amino-ethyl)-2-[2-hydroxy-1-(3-hydroxy-octyl)-2,3,3a,4,9,9a-hexahydro-1H-cyclopenta[b]naphthalen-5-yloxy]-acetamide]

half-life at 0.5 uM [1]: < 15 min
half-life at 0.5 uM [3]: 15 to 30 min
Structure (SMILES): CCCCC[C@H](O)CC[C@@H]1[C@H]2Cc3cccc(OCC(=O)OC(C)(C)C)c3C[C@H]2C[C@H]1O [Compound 28, [2-Hydroxy-1-(3-hydroxy-octyl)-2,3,3a,4,9,9a-hexahydro-1H-cyclopenta[b]naphthalen-5-yloxy]-acetic acid tert-butyl ester]
